Test results reported in patent publication US8258134B2, “Pyridazinone glucokinase activators” (Hoffmann-La Roche Inc., priority 2008, dated 2012).

Molecular target: T1, Recombinant human liver GK1 (GST-GK) (Homo sapiens, UniProt P35557)
T1 construct: made in house; host or cells: E. coli
T1 sequence (P35557 1-466 isoform P35557-2): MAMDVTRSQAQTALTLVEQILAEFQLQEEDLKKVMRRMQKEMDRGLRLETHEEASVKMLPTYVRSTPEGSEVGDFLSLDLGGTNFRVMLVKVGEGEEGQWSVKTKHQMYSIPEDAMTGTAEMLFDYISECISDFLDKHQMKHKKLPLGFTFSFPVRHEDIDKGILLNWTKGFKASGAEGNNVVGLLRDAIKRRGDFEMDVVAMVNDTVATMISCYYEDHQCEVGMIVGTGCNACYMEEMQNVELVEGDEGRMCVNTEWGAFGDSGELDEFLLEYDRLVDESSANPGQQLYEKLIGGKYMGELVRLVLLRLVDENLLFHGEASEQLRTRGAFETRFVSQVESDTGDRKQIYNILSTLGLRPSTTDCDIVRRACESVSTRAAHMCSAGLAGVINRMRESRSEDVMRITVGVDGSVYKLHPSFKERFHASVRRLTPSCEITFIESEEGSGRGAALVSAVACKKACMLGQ
Experiment: Glucokinase in vitro assay (G6PDH-coupled NADH generation, OD340)
Type: biochemical
Conditions: 5 mM D-glucose; for SC1.5 average (concentration of activator that produced a 50% increase in the activity of GK): 30° C., pH 7.1, 10% DMSO; for fold activation @ 30 uM: 30 uM test compound
Outline: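 Activation readout is SC1.5, the activator concentration raising GK rate (OD340/min) 50% above 10% DMSO controls. The coupled reaction used GST-GK1 from E. coli, 5 mM glucose, 1 mM ATP, 1.8 mM NAD and 25 mM Hepes pH 7.1 at 30° C. Enzyme was added after a 10 min compound pre-incubation.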

| SC1.5 average (concentration of activator that produced a 50% increase in the activity of GK) [µM] | fold activation @ 30 uM [fold] | SMILES |
| --- | --- | --- |
| 0.576 |  | CC(C)CC(C(=O)Nc1ccn(CCO)n1)n1ncc(Oc2c(F)cccc2F)cc1=O (stereo not drawn) [Example 59, 2-[4-(2,6-Difluoro-phenoxy)-6-oxo-6H-pyridazin-1-yl]-4-methyl-pentanoic acid [1-(2-hydroxy-ethyl)-1H-pyrazol-3-yl]-amide] |
| 0.026 |  | O=C(O)c1ccc(NC(=O)C(CC2CCCC2)n2ncc(Oc3c(F)cccc3F)cc2=O)nc1 (stereo not drawn) [Example 73, 6-{3-Cyclopentyl-2-[4-(2,6-difluoro-phenoxy)-6-oxo-6H-pyridazin-1-yl]-propionylamino}-nicotinic acid] |
| 0.293 |  | CC(C)CC(C(=O)Nc1ccn(C[C@@H](O)CO)n1)n1ncc(Oc2cccc3ccccc23)cc1=O (stereo partly drawn) [Example 109, 4-Methyl-2-[4-(naphthalen-1-yloxy)-6-oxo-6H-pyridazin-1-yl]-pentanoic acid [1-((R)-2,3-dihydroxy-propyl)-1H-pyrazol-3-yl]-amide] |
| 0.796 |  | O=C(O)c1ccc(NC(=O)[C@@H](CC2CCCC2)n2ncc(Oc3ccccc3F)cc2=O)nc1 [Example 75B, 6-{(R)-3-Cyclopentyl-2-[4-(2-fluoro-phenoxy)-6-oxo-6H-pyridazin-1-yl]-propionylamino}-nicotinic acid] |
| > 30 | 1.3 | Cn1ccc(NC(=O)C(CC2CCCC2)n2ncccc2=O)n1 (stereo not drawn) [Example 82, 3-Cyclopentyl-N-(1-methyl-1H-pyrazol-3-yl)-2-(6-oxo-6H-pyridazin-1-yl)-propionamide] |
| 0.551 |  | CCC(CC)CC(C(=O)Nc1ccn(C[C@@H](O)CO)n1)n1ncc(Oc2c(F)cccc2F)cc1=O (stereo partly drawn) [Example 64, 2-[4-(2,6-Difluoro-phenoxy)-6-oxo-6H-pyridazin-1-yl]-4-ethyl-hexanoic acid [1-((R)-2,3-dihydroxy-propyl)-1H-pyrazol-3-yl]-amide] |
| 0.132 |  | COC(=O)c1ccc(NC(=O)C(CC2CCCC2)n2ncc(Oc3cccc4c3CCCC4)cc2=O)nc1 (stereo not drawn) [Example 67, 6-{3-Cyclopentyl-2-[6-oxo-4-(5,6,7,8-tetrahydro-naphthalen-1-yloxy)-6H-pyridazin-1-yl]-propionylamino}-nicotinic acid methyl ester] |
| 2.975 |  | CC(C)(O)Cn1ccc(NC(=O)C(CC2CCCC2)n2ncc(Oc3ccccc3S(C)(=O)=O)cc2=O)n1 (stereo not drawn) [Example 30, 3-Cyclopentyl-N-[1-(2-hydroxy-2-methyl-propyl)-1H-pyrazol-3-yl]-2-[4-(2-methanesulfonyl-phenoxy)-6-oxo-6H-pyridazin-1-yl]-propionamide] |
| 1.032 |  | CC(C)(O)Cn1ccc(NC(=O)C(Cc2ccccc2)n2ncc(Oc3c(F)cccc3F)cc2=O)n1 (stereo not drawn) [Example 44, 2-[4-(2,6-Difluoro-phenoxy)-6-oxo-6H-pyridazin-1-yl]-N-[1-(2-hydroxy-2-methyl-propyl)-1H-pyrazol-3-yl]-3-phenyl-propionamide] |
| 21.07 |  | CN(c1ccccc1)c1cnn(C(CC2CCCC2)C(=O)Nc2ccn(CC(C)(C)O)n2)c(=O)c1 (stereo not drawn) [Example 77, 3-Cyclopentyl-N-[1-(2-hydroxy-2-methyl-propyl)-1H-pyrazol-3-yl]-2-[4-(methyl-phenyl-amino)-6-oxo-6H-pyridazin-1-yl]-propionamide] |
| 0.376 |  | O=C(Nc1ccn(C[C@@H](O)CO)n1)C(CC1CCCC1)n1ncc(Oc2nccc(C(F)(F)F)n2)cc1=O (stereo partly drawn) [Example 115, 3-Cyclopentyl-N-[1-((R)-2,3-dihydroxy-propyl)-1H-pyrazol-3-yl]-2-[6-oxo-4-(4-trifluoromethyl-pyrimidin-2-yloxy)-6H-pyridazin-1-yl]-propionamide] |
| > 30 | 1.36 | CC(C)CC(C(=O)Nc1ccn(C[C@@H](O)CO)n1)n1ncc(Nc2ccccc2Cl)cc1=O (stereo partly drawn) [Example 122, 2-[4-(2-Chloro-phenylamino)-6-oxo-6H-pyridazin-1-yl]-4-methyl-pentanoic acid [1-((R)-2,3-dihydroxy-propyl)-1H-pyrazol-3-yl]-amide] |
| 0.135 |  | CC(C)(O)Cn1ccc(NC(=O)C(CC2CCCCC2)n2ncc(Oc3cccc4c3OCCO4)cc2=O)n1 (stereo not drawn) [Example 133, 3-Cyclohexyl-2-[4-(2,3-dihydro-benzo[1,4]dioxin-5-yloxy)-6-oxo-6H-pyridazin-1-yl]-N-[1-(2-hydroxy-2-methyl-propyl)-1H-pyrazol-3-yl]-propionamide] |
| 0.058 |  | O=C(O)c1ccc(NC(=O)C(CC2CCCC2)n2ncc(Oc3ccccc3F)cc2=O)nc1 (stereo not drawn) [Example 75, 6-{3-Cyclopentyl-2-[4-(2-fluoro-phenoxy)-6-oxo-6H-pyridazin-1-yl]-propionylamino}-nicotinic acid] |
| 0.352 |  | Cc1ccc(Oc2cnn(C(CC3CCCCC3)C(=O)Nc3ccn(CC(C)(C)O)n3)c(=O)c2)c(C)c1 (stereo not drawn) [Example 117, 3-Cyclohexyl-2-[4-(2,4-dimethyl-phenoxy)-6-oxo-6H-pyridazin-1-yl]-N-[1-(2-hydroxy-2-methyl-propyl)-1H-pyrazol-3-yl]-propionamide] |
| 0.732 |  | O=C(Nc1ccn(C[C@@H](O)CO)n1)C(CC1CCCC1)n1ncc(Oc2ccccc2CCO)cc1=O (stereo partly drawn) [Example 101, 3-Cyclopentyl-N-[1-((R)-2,3-dihydroxy-propyl)-1H-pyrazol-3-yl]-2-{4-[2-(2-hydroxy-ethyl)-phenoxy]-6-oxo-6H-pyridazin-1-yl}-propionamide] |
| 2.606 |  | CC(C)CC(C(=O)Nc1ccn(C[C@@H](O)CO)n1)n1ncc(-n2ccc3c(O)cccc32)cc1=O (stereo partly drawn) [Example 112, 2-[4-(4-Hydroxy-indol-1-yl)-6-oxo-6H-pyridazin-1-yl]-4-methyl-pentanoic acid [1-((R)-2,3-dihydroxy-propyl)-1H-pyrazol-3-yl]-amide] |
| 0.29 |  | CC(C)CC(C(=O)Nc1ccn(C[C@@H](O)CO)n1)n1ncc(Oc2cccc3c2CCCC3)cc1=O (stereo partly drawn) [Example 110, 4-Methyl-2-[6-oxo-4-(5,6,7,8-tetrahydro-naphthalen-1-yloxy)-6H-pyridazin-1-yl]-pentanoic acid [1-((R)-2,3-dihydroxy-propyl)-1H-pyrazol-3-yl]-amide] |
| 0.135 |  | O=C(Nc1ccn(C[C@@H](O)CO)n1)C(CC1CCCC1)n1ncc(Oc2cccc(Cl)c2Cl)cc1=O (stereo partly drawn) [Example 92, 3-Cyclopentyl-2-[4-(2,3-dichloro-phenoxy)-6-oxo-6H-pyridazin-1-yl]-N-[1-((R)-2,3-dihydroxy-propyl)-1H-pyrazol-3-yl]-propionamide] |
